Laboratory results taken from patent US7705030B2, “Amino-5-(5-membered)hetero-arylimidazolone compounds and the use thereof for β-secretase modulation” (Wyeth LLC, priority 2005, dated 2010).

Legend:
human BACE1 = human BACE1 (Homo sapiens, UniProt P56817); assay: Fluorescent kinetic assay: Evaluation of BACE-1 Binding Affinity of Test Compounds; type: biochemical; conditions: 10 nM enzyme, 25 μM substrate WABC-6, 50 mM Na-Acetate pH 4.5, room temperature
How it was run: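 Run with 10 nM human BACE1 and 25 μM WABC-6 FRET peptide in 50 mM Na-acetate pH 4.5, 0.05% CHAPS, 25% PBS at room temperature. Fluorescence (ex 320/em 420 nm) was read every 40 sec for 30 min, and initial cleavage rates were taken from linear slopes across ≥10 inhibitor concentrations.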

Chain of human BACE1 (P56817 46-501): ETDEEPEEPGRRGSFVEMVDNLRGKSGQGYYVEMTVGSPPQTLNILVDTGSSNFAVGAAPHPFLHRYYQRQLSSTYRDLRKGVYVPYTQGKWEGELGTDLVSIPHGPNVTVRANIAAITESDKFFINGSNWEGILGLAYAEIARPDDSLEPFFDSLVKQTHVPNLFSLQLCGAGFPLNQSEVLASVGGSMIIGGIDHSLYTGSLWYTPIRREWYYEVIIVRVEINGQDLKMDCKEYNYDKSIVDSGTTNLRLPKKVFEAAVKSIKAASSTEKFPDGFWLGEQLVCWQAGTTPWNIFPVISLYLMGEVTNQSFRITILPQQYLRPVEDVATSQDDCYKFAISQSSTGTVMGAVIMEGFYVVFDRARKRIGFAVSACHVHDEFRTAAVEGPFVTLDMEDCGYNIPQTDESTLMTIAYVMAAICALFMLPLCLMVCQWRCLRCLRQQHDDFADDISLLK

SMILES | IC50 (human BACE1) [nM] | melting point [°C]
CN1C(=O)C(c2cccc(-c3cncnc3)c2)(c2cc(C#N)n(C)c2)N=C1N (stereo not shown) [Example 225, 4-[2-Amino-1-methyl-5-oxo-4-(3-pyrimidin-5-ylphenyl)-4,5-dihydro-1H-imidazol-4-yl]-1-methyl-1H-pyrrole-2-carbonitrile] | 110 to 1000 | 214 to 225
CCn1cc(C2(c3cccc(-c4cccnc4F)c3)N=C(N)N(C)C2=O)cc1C(=O)N1CCOCC1 (stereo not shown) [Example 164] | 10 to 100 | 108 to 109
CN1C(=O)C(c2cccc(O)c2)(c2cnn(CC(F)(F)F)c2)N=C1N (stereo not shown) [Example 93, 2-amino-5-(3-hydroxyphenyl)-3-methyl-5-[1-(2,2,2-trifluoroethyl)-1H-pyrazol-4-yl]-3,5-dihydro-4H-imidazol-4-one] | > 1000 | 118 to 120
CN1C(=O)C(c2ccc(OC(F)F)cc2)(c2cnn(CC(F)(F)F)c2)N=C1N (stereo not shown) [Example 74] | > 1000 | 70 to 72
CCC(=O)c1cc(C2(c3cccc(-c4cc(F)cc(F)c4)c3)N=C(N)N(C)C2=O)cn1CC(F)(F)F (stereo not shown) [Example 203] | 10 to 100 | 104 to 106
CN1C(=O)C(c2ccc(OC(F)F)cc2)(c2cnn(Cc3ccccc3)c2)N=C1N (stereo not shown) [Example 75] | > 1000 | 74 to 76
CCn1cc(C2(c3ccc(F)c(-c4cncnc4)c3)N=C(N)N(C)C2=O)cn1 (stereo not shown) [Example 9, 2-Amino-5-(1-ethyl-1H-pyrazol-4-yl)-5-(4-fluoro-3-pyrimidin-5-ylphenyl)-3-methyl-3,5-dihydro-4H-imidazol-4-one] | 10 to 100 | 120 to 121
CCC(=O)c1cc(C2(c3cccc(-c4cccnc4F)c3)N=C(N)N(C)C2=O)cn1Cc1cscn1 (stereo not shown) [Example 182] | 10 to 100 | 116 to 120
CC(C)CCOc1cccc(C2(c3ccsc3)N=C(N)N(C)C2=O)c1 (stereo not shown) [Example 144] | 110 to 1000 | 84 to 88
CN1C(=O)C(c2ccc(F)c(-c3cncnc3)c2)(c2cnn(CC(F)(F)F)c2)N=C1N (stereo not shown) [Example 8, 2-Amino-5-(4-fluoro-3-pyrimidin-5-ylphenyl)-3-methyl-5-[1-(2,2,2-trifluoroethyl)-1H-pyrazol-4-yl]-3,5-dihydro-4H-imidazol-4-one] | 110 to 1000 | 115 to 117
CCn1cc(C2(c3ccc(F)c(-c4cccnc4F)c3)N=C(N)N(C)C2=O)cn1 (stereo not shown) [Example 10, 2-Amino-5-(1-ethyl-1H-pyrazol-4-yl)-5-[4-fluoro-3-(2-fluoropyridin-3-yl)phenyl]-3-methyl-3,5-dihydro-4H-imidazol-4-one] | 10 to 100 | 84 to 85
COc1cncc(-c2cccc(C3(c4ccsc4)N=C(N)N(C)C3=O)c2)c1 (stereo not shown) [Example 37] | 10 to 100 | 197
CN1C(=O)C(c2cccc(-c3cccc(F)c3F)c2)(c2cnn(CC(F)(F)F)c2)N=C1N (stereo not shown) [Example 87] | 10 to 100 | 103 to 105
CCn1ccc(C2(c3cccc(-c4cncnc4)c3)N=C(N)N(C)C2=O)c1 (stereo not shown) [Example 52, 2-amino-5-(1-ethyl-1H-pyrrol-3-yl)-3-methyl-5-(3-pyrimidin-5-ylphenyl)-3,5-dihydro-4H-imidazol-4-one] | 110 to 1000 | 100 to 102
CCCC(=O)Nc1cccc(C2(c3cc(C(=O)CC)n(CC)c3)N=C(N)N(C)C2=O)c1 (stereo not shown) [Example 129, N-{3-[2-amino-4-(1-ethyl-5-propionyl-1H-pyrrol-3-yl)-1-methyl-5-oxo-4,5-dihydro-1H-imidazol-4-yl]-phenyl}-butyramide] | 110 to 1000 | 201 to 205
CC(C)Cn1cc(C2(c3cccc(-c4cncnc4)c3)N=C(N)N(C)C2=O)cn1 (stereo not shown) [Example 5, 2-Amino-5-(1-isobutyl-1H-pyrazol-4-yl)-3-methyl-5-(3-pyrimidin-5-ylphenyl)-3,5-dihydro-4H-imidazol-4-one] | 10 to 100 | 118 to 122

SMILES | IC50 (human BACE1) [nM] | melting point [°C]
CC(C)CCn1cc(C2(c3cccc(-c4cncnc4)c3)N=C(N)N(C)C2=O)cn1 (stereo not shown) [Example 108] | 10 to 100 | 87 to 90
CN1C(=O)C(c2cccc(OCC3CC3)c2)(c2cnn(CCF)c2)N=C1N (stereo not shown) [Example 70, 2-amino-5-[3-(cyclopropylmethoxy)phenyl]-5-[1-(2-fluoroethyl)-1H-pyrazol-4-yl]-3-methyl-3,5-dihydro-4H-imidazol-4-one] | 110 to 1000 | 70 to 72
CN1C(=O)C(c2cccc(-c3cccnc3F)c2)(c2cnn(Cc3ccccc3)c2)N=C1N (stereo not shown) [Example 103] | 10 to 100 | 94 to 97
CCC(=O)c1cc(C2(c3cccc(NC(=O)COC)c3)N=C(N)N(C)C2=O)cn1CC (stereo not shown) [Example 131, N-{3-[2-amino-4-(1-ethyl-5-propionyl-1H-pyrrol-3-yl)-1-methyl-5-oxo-4,5-dihydro-1H-imidazol-4-yl]-phenyl}-2-methoxy-acetamide] | 10 to 100 | 95 to 115
CN1C(=O)C(c2cccc(-c3cccnc3)c2)(c2cnn(CC(F)(F)F)c2)N=C1N (stereo not shown) [Example 88] | 110 to 1000 | 202 to 204
CCN(CC)Cc1cc(C2(c3cccc(-c4cccnc4F)c3)N=C(N)N(C)C2=O)cn1CCF (stereo not shown) [Example 235, 2-Amino-5-[5-[(diethylamino)methyl]-1-(2-fluoroethyl)-1H-pyrrol-3-yl]-5-[3-(2-fluoropyridin-3-yl)phenyl]-3-methyl-3,5-dihydro-4H-imidazol-4-one] | > 1000 | 121 to 140
CCC(=O)c1cc(C2(c3ccc(F)c(-c4cccnc4F)c3)N=C(N)N(C)C2=O)cn1CC(F)(F)F (stereo not shown) [Example 207] | 10 to 100 | 122 to 124
CC(C)OC(=O)c1cc(C2(c3ccc(F)c(-c4cncnc4)c3)N=C(N)N(C)C2=O)cn1CCF (stereo not shown) [Example 127] | 110 to 1000 | 167 to 170
CCn1cc(C2(c3cccc(-c4cccnc4F)c3)N=C(N)N(C)C2=O)cc1C(=O)C(C)C (stereo not shown) [Example 173] | 10 to 100 | 85 to 88
CCOC(=O)c1cc(C2(c3ccc(F)c(-c4cccnc4F)c3)N=C(N)N(C)C2=O)cn1CC (stereo not shown) [Example 125] | 10 to 100 | 114 to 115
CN1C(=O)C(c2ccsc2)(c2cccc(-c3cnccn3)c2)N=C1N (stereo not shown) [Example 33] | 10 to 100 | 223
CCn1cc(C2(c3cccc(-c4cccnc4F)c3)N=C(N)N(C)C2=O)cc1C(=O)N1CCCCC1 (stereo not shown) [Example 163] | 10 to 100 | 111 to 113
CCCCn1cc(C2(c3cccc(-c4cncnc4)c3)N=C(N)N(C)C2=O)cn1 (stereo not shown) [Example 6, 2-Amino-5-(1-butyl-1H-pyrazol-4-yl)-3-methyl-5-(3-pyrimidin-5-ylphenyl)-3,5-dihydro-4H-imidazol-4-one] | 10 to 100 | 94 to 98
CCC(=O)c1cc(C2(c3cccc(-c4cncnc4)c3)N=C(N)N(C)C2=O)cs1 (stereo not shown) [Example 116, 2-Amino-3-methyl-5-(5-propionyl-thiophen-3-yl)-5-(3-pyrimidin-5-yl-phenyl)-3,5-dihydro-imidazol-4-one] | 10 to 100 | 167 to 172
CCCn1cc(C2(c3cccc(-c4cccnc4F)c3)N=C(N)N(C)C2=O)cc1C#N (stereo not shown) [Example 230] | 10 to 100 | 187 to 188

Other lines, results leading:

IC50 (human BACE1) [nM] | melting point [°C] | SMILES
10 to 100 | 121 to 124 | COC(=O)c1cc(C2(c3cccc(-c4cccc(OC)c4)c3)N=C(N)N(C)C2=O)cn1CCF (stereo not shown) [Example 196]
110 to 1000 | 121 to 123 | CCn1cc(C2(c3cccc(-c4cccnc4F)c3)N=C(N)N(C)C2=O)cc1C(=O)NC(C)C (stereo not shown) [Example 161]
10 to 100 | 147 to 150 | COC(=O)c1cc(C2(c3cccc(-c4cc(C#N)ccc4F)c3)N=C(N)N(C)C2=O)cn1CCF (stereo not shown) [Example 195]
10 to 100 | 105 | CCC(=O)c1cc(C2(c3cccc(-c4cccnc4F)c3)N=C(N)N(C)C2=O)cn1CCCF (stereo not shown) [Example 152]
10 to 100 | 118 | CCCn1cc(C2(c3cccc(-c4cccnc4F)c3)N=C(N)N(C)C2=O)cc1C(=O)CC (stereo not shown) [Example 149, 2-Amino-5-[3-(2-fluoropyridin-3-yl)phenyl]-3-methyl-5-(5-propionyl-1-propyl-1H-pyrrol-3-yl)-3,5-dihydro-4H-imidazol-4-one]
10 to 100 | 100 | CCC(=O)c1cc(C2(c3cccc(-c4cccnc4F)c3)N=C(N)N(C)C2=O)cn1CCF (stereo not shown) [Example 167]
10 to 100 | 112 to 114 | CCC(=O)c1cc(C2(c3cccc(-c4cccc(C#N)c4)c3)N=C(N)N(C)C2=O)cn1CC(F)(F)F (stereo not shown) [Example 206]
10 to 100 | 166 to 170 | COC(=O)c1cc(C2(c3cccc(-c4cc(F)ccc4F)c3)N=C(N)N(C)C2=O)cn1CCF (stereo not shown) [Example 192]
110 to 1000 | 118 to 121 | CN(C)Cc1cc(C2(c3cccc(-c4cccnc4F)c3)N=C(N)N(C)C2=O)cn1CCF (stereo not shown) [Example 238]
10 to 100 | 173 to 176 | COC(=O)c1cc(C2(c3cccc(-c4cc(F)cc(F)c4)c3)N=C(N)N(C)C2=O)cn1CCF (stereo not shown) [Example 193]
10 to 100 | 108 to 110 | CCC(=O)c1cc(C2(c3cccc(-c4cccc(Cl)c4)c3)N=C(N)N(C)C2=O)cn1CC(F)(F)F (stereo not shown) [Example 204]
110 to 1000 | 120 to 123 | CCCNC(=O)c1cc(C2(c3cccc(-c4cccnc4F)c3)N=C(N)N(C)C2=O)cn1CC (stereo not shown) [Example 159]
110 to 1000 | > 200 | CCn1cc(C2(c3cccc(-c4cccnc4F)c3)N=C(N)N(C)C2=O)cc1C(=O)N(C)C (stereo not shown) [Example 165]
